Assay results from US8222278B2, “Treatment of attention-deficit/hyperactivity disorder” (Abbott Laboratories, priority 2008, dated 2012).

Experiments:
adults with ADHD [1] = details: human, in vivo, 4 weeks
Procedure: (§1) During each visit, blood pressure, heart rate, weight, medication accountability and tolerability, and adverse effects were assessed.
(§2) The safety dataset consisted of all subjects who took at least one dose of study drug. The reasons for discontinuation and the treatment-emergent adverse events were summarized by the treatment under which the discontinuation or event was reported.
(§3) Treatment-emergent adverse events were those that began or worsened following the first dose of study drug in Period 1. Adverse event monitoring was conducted at each study visit and until 30 days following discontinuation of study drug. Other routine safety assessments included vital signs, electrocardiograms, physical examinations, brief neurological examinations and laboratory tests.

adults with ADHD [2] = assay: Study A: treatment-emergent adverse events (safety dataset)
Procedure: as §1, §2, §3

`Clc1cc(N2C[C@@H]3CN[C@@H]3C2)cnc1Cl` [ABT-894, 3-(5,6-Dichloro-pyridin-3-yl)-1S,5S-3,6-diazabicyclo[3.2.0]heptane] was tested, and the “Influenza-like illness, % of subjects” value (adults with ADHD [1]) was “(0) %”, the “Influenza-like illness, number of subjects” value (adults with ADHD [1]) was 0 subjects and the “Any Adverse Event, % of subjects” value (adults with ADHD [2]; ABT-894 1 mg QD, N = 46) was “(69.6) %”. For the same compound, the “Any Adverse Event, number of subjects” value (adults with ADHD [2]; ABT-894 1 mg QD, N = 46) was 32 subjects, the “Decreased appetite, % of subjects” value (adults with ADHD [2]; ABT-894 1 mg QD, N = 46) was “(0) %” and the “Decreased appetite, number of subjects” value (adults with ADHD [2]; ABT-894 1 mg QD, N = 46) was 0 subjects. For the same compound, the “Diarrhea, % of subjects” value (adults with ADHD [2]; ABT-894 1 mg QD, N = 46) was “(0) %”, the “Diarrhea, number of subjects” value (adults with ADHD [2]; ABT-894 1 mg QD, N = 46) was 0 subjects and the “Dizziness, % of subjects” value (adults with ADHD [2]; ABT-894 1 mg QD, N = 46) was “(4.3) %”. The “Dizziness, number of subjects” value (adults with ADHD [2]; ABT-894 1 mg QD, N = 46) was 2 subjects, the “Dry mouth, % of subjects” value (adults with ADHD [2]; ABT-894 1 mg QD, N = 46) was “(4.3) %” and the “Dry mouth, number of subjects” value (adults with ADHD [2]; ABT-894 1 mg QD, N = 46) was 2 subjects. For the same compound, the “Fatigue, % of subjects” value (adults with ADHD [2]; ABT-894 1 mg QD, N = 46) was “(4.3) %”, the “Fatigue, number of subjects” value (adults with ADHD [2]; ABT-894 1 mg QD, N = 46) was 2 subjects and the “Feeling hot and cold, % of subjects” value (adults with ADHD [2]; ABT-894 1 mg QD, N = 46) was “(0) %”. The “Feeling hot and cold, number of subjects” value (adults with ADHD [2]; ABT-894 1 mg QD, N = 46) was 0 subjects, the “Feeling jittery, % of subjects” value (adults with ADHD [2]; ABT-894 1 mg QD, N = 46) was “(0) %” and the “Feeling jittery, number of subjects” value (adults with ADHD [2]; ABT-894 1 mg QD, N = 46) was 0 subjects. For the same compound, the “Headache, % of subjects” value (adults with ADHD [2]; ABT-894 1 mg QD, N = 46) was “(8.7) %”, the “Headache, number of subjects” value (adults with ADHD [2]; ABT-894 1 mg QD, N = 46) was 4 subjects and the “Lethargy, % of subjects” value (adults with ADHD [2]; ABT-894 1 mg QD, N = 46) was “(0) %”. For the same compound, the “Lethargy, number of subjects” value (adults with ADHD [2]; ABT-894 1 mg QD, N = 46) was 0 subjects, the “Muscle Strain, % of subjects” value (adults with ADHD [2]; ABT-894 1 mg QD, N = 46) was “(6.5) %” and the “Muscle Strain, number of subjects” value (adults with ADHD [2]; ABT-894 1 mg QD, N = 46) was 3 subjects. The “Nasal congestion, % of subjects” value (adults with ADHD [2]; ABT-894 1 mg QD, N = 46) was “(0) %”, the “Nasal congestion, number of subjects” value (adults with ADHD [2]; ABT-894 1 mg QD, N = 46) was 0 subjects and the “Nausea, % of subjects” value (adults with ADHD [2]; ABT-894 1 mg QD, N = 46) was “(4.3) %”. For the same compound, the “Nausea, number of subjects” value (adults with ADHD [2]; ABT-894 1 mg QD, N = 46) was 2 subjects, the “Parathesia, % of subjects” value (adults with ADHD [2]; ABT-894 1 mg QD, N = 46) was “(0) %” and the “Parathesia, number of subjects” value (adults with ADHD [2]; ABT-894 1 mg QD, N = 46) was 0 subjects. For the same compound, the “Sleep disturbances, % of subjects” value (adults with ADHD [2]; ABT-894 1 mg QD, N = 46) was “(4.3) %”, the “Sleep disturbances, number of subjects” value (adults with ADHD [2]; ABT-894 1 mg QD, N = 46) was 2 subjects and the “Somnolence, % of subjects” value (adults with ADHD [2]; ABT-894 1 mg QD, N = 46) was “(13.0) %”. For the same compound, the “Somnolence, number of subjects” value (adults with ADHD [2]; ABT-894 1 mg QD, N = 46) was 6 subjects, the “Upper RTI, % of subjects” value (adults with ADHD [2]; ABT-894 1 mg QD, N = 46) was “(2.2) %” and the “Upper RTI, number of subjects” value (adults with ADHD [2]; ABT-894 1 mg QD, N = 46) was 1 subjects. For the same compound, the “Vomiting, % of subjects” value (adults with ADHD [2]; ABT-894 1 mg QD, N = 46) was “(0) %”, the “Vomiting, number of subjects” value (adults with ADHD [2]; ABT-894 1 mg QD, N = 46) was 0 subjects and the “Any Adverse Event, % of subjects” value (adults with ADHD [2]; ABT-894 2 mg QD, N = 42) was “(61.9) %”. The “Any Adverse Event, number of subjects” value (adults with ADHD [2]; ABT-894 2 mg QD, N = 42) was 26 subjects, the “Decreased appetite, % of subjects” value (adults with ADHD [2]; ABT-894 2 mg QD, N = 42) was “(0) %” and the “Decreased appetite, number of subjects” value (adults with ADHD [2]; ABT-894 2 mg QD, N = 42) was 0 subjects. The “Diarrhea, % of subjects” value (adults with ADHD [2]; ABT-894 2 mg QD, N = 42) was “(4.8) %”, the “Diarrhea, number of subjects” value (adults with ADHD [2]; ABT-894 2 mg QD, N = 42) was 2 subjects and the “Dizziness, % of subjects” value (adults with ADHD [2]; ABT-894 2 mg QD, N = 42) was “(9.5) %”. For the same compound, the “Dizziness, number of subjects” value (adults with ADHD [2]; ABT-894 2 mg QD, N = 42) was 4 subjects, the “Dry mouth, % of subjects” value (adults with ADHD [2]; ABT-894 2 mg QD, N = 42) was “(0) %” and the “Dry mouth, number of subjects” value (adults with ADHD [2]; ABT-894 2 mg QD, N = 42) was 0 subjects. For the same compound, the “Fatigue, % of subjects” value (adults with ADHD [2]; ABT-894 2 mg QD, N = 42) was “(2.4) %”, the “Fatigue, number of subjects” value (adults with ADHD [2]; ABT-894 2 mg QD, N = 42) was 1 subjects and the “Feeling hot and cold, % of subjects” value (adults with ADHD [2]; ABT-894 2 mg QD, N = 42) was “(0) %”. For the same compound, the “Feeling hot and cold, number of subjects” value (adults with ADHD [2]; ABT-894 2 mg QD, N = 42) was 0 subjects, the “Feeling jittery, % of subjects” value (adults with ADHD [2]; ABT-894 2 mg QD, N = 42) was “(0) %” and the “Feeling jittery, number of subjects” value (adults with ADHD [2]; ABT-894 2 mg QD, N = 42) was 0 subjects. The “Headache, % of subjects” value (adults with ADHD [2]; ABT-894 2 mg QD, N = 42) was “(11.9) %”, the “Headache, number of subjects” value (adults with ADHD [2]; ABT-894 2 mg QD, N = 42) was 5 subjects and the “Lethargy, % of subjects” value (adults with ADHD [2]; ABT-894 2 mg QD, N = 42) was “(0) %”. For the same compound, the “Lethargy, number of subjects” value (adults with ADHD [2]; ABT-894 2 mg QD, N = 42) was 0 subjects, the “Muscle Strain, % of subjects” value (adults with ADHD [2]; ABT-894 2 mg QD, N = 42) was “(0) %” and the “Muscle Strain, number of subjects” value (adults with ADHD [2]; ABT-894 2 mg QD, N = 42) was 0 subjects. The “Nasal congestion, % of subjects” value (adults with ADHD [2]; ABT-894 2 mg QD, N = 42) was “(0) %”, the “Nasal congestion, number of subjects” value (adults with ADHD [2]; ABT-894 2 mg QD, N = 42) was 0 subjects and the “Nausea, % of subjects” value (adults with ADHD [2]; ABT-894 2 mg QD, N = 42) was “(14.3) %”. For the same compound, the “Nausea, number of subjects” value (adults with ADHD [2]; ABT-894 2 mg QD, N = 42) was 6 subjects, the “Parathesia, % of subjects” value (adults with ADHD [2]; ABT-894 2 mg QD, N = 42) was “(0) %” and the “Parathesia, number of subjects” value (adults with ADHD [2]; ABT-894 2 mg QD, N = 42) was 0 subjects. For the same compound, the “Sleep disturbances, % of subjects” value (adults with ADHD [2]; ABT-894 2 mg QD, N = 42) was “(14.3) %”, the “Sleep disturbances, number of subjects” value (adults with ADHD [2]; ABT-894 2 mg QD, N = 42) was 6 subjects and the “Somnolence, % of subjects” value (adults with ADHD [2]; ABT-894 2 mg QD, N = 42) was “(0) %”. The “Somnolence, number of subjects” value (adults with ADHD [2]; ABT-894 2 mg QD, N = 42) was 0 subjects, the “Upper RTI, % of subjects” value (adults with ADHD [2]; ABT-894 2 mg QD, N = 42) was “(7.1) %” and the “Upper RTI, number of subjects” value (adults with ADHD [2]; ABT-894 2 mg QD, N = 42) was 3 subjects. The “Vomiting, % of subjects” value (adults with ADHD [2]; ABT-894 2 mg QD, N = 42) was “(2.4) %”, the “Vomiting, number of subjects” value (adults with ADHD [2]; ABT-894 2 mg QD, N = 42) was 1 subjects and the “Any Adverse Event, % of subjects” value (adults with ADHD [2]; ABT-894 4 mg BID, N = 46) was “(54.3) %”. The “Any Adverse Event, number of subjects” value (adults with ADHD [2]; ABT-894 4 mg BID, N = 46) was 25 subjects, the “Decreased appetite, % of subjects” value (adults with ADHD [2]; ABT-894 4 mg BID, N = 46) was “(0) %” and the “Decreased appetite, number of subjects” value (adults with ADHD [2]; ABT-894 4 mg BID, N = 46) was 0 subjects. The “Diarrhea, % of subjects” value (adults with ADHD [2]; ABT-894 4 mg BID, N = 46) was “(2.2) %”, the “Diarrhea, number of subjects” value (adults with ADHD [2]; ABT-894 4 mg BID, N = 46) was 1 subjects and the “Dizziness, % of subjects” value (adults with ADHD [2]; ABT-894 4 mg BID, N = 46) was “(2.2) %”. For the same compound, the “Dizziness, number of subjects” value (adults with ADHD [2]; ABT-894 4 mg BID, N = 46) was 1 subjects, the “Dry mouth, % of subjects” value (adults with ADHD [2]; ABT-894 4 mg BID, N = 46) was “(2.2) %” and the “Dry mouth, number of subjects” value (adults with ADHD [2]; ABT-894 4 mg BID, N = 46) was 1 subjects. For the same compound, the “Fatigue, % of subjects” value (adults with ADHD [2]; ABT-894 4 mg BID, N = 46) was “(8.7) %”, the “Fatigue, number of subjects” value (adults with ADHD [2]; ABT-894 4 mg BID, N = 46) was 4 subjects and the “Feeling hot and cold, % of subjects” value (adults with ADHD [2]; ABT-894 4 mg BID, N = 46) was “(0) %”. For the same compound, the “Feeling hot and cold, number of subjects” value (adults with ADHD [2]; ABT-894 4 mg BID, N = 46) was 0 subjects, the “Feeling jittery, % of subjects” value (adults with ADHD [2]; ABT-894 4 mg BID, N = 46) was “(0) %” and the “Feeling jittery, number of subjects” value (adults with ADHD [2]; ABT-894 4 mg BID, N = 46) was 0 subjects.
